# Laboratory results reported in patent publication US11285127B2, “Compositions and methods for lowering triglycerides without raising LDL-C levels in a subject on concomitant statin therapy” (Amarin Pharmaceuticals Ireland Limited, priority 2013, dated 2022).
# Test system: patients with fasting triglyceride levels >200 mg/dl and <500 mg/dl despite statin therapy
# Experiment: 12-week study: plasma fatty acids (EPA concentration, FADI ratios) by gas chromatography/flame ionization detection
# Format: in vivo, human
# Details: 4 g/day, placebo-adjusted, 12 weeks
# Description: A multi-center, placebo-controlled, randomized, double-blind, 12-week study was performed to evaluate the efficacy and safety of >96% E-EPA in patients with fasting triglyceride levels >200 mg/dl and <500 mg/dl despite statin therapy (the mean of two qualifying entry values needed to be >185 mg/dl and at least one of the values needed to be >200 mg/dl). The primary objective of the study was to determine the efficacy of >96% E-EPA 2 g daily and 4 g daily, compared to placebo, in lowering fasting TG levels in patients with high risk for cardiovascular disease and with fasting TG levels 200 mg/dl and <500 mg/dl, despite treatment to LDL-C goal on statin therapy. The secondary objectives of this study were the following: • 1. To determine the safety and tolerability of >96% E-EPA 2 g daily and 4 g daily; • 2. To determine the effect of >96% E-EPA on lipid and apolipoprotein profiles including total cholesterol (TC), non-high-density lipoprotein cholesterol (non-HDL-C), low density lipoprotein cholesterol (LDL-C), high density lipoprotein cholesterol (HDL-C), and […]; • 3. To determine the effect of >96% E-EPA on lipoprotein associated phospholipase A2 (Lp-PLA2) from baseline to week 12; • 4. To determine the effect of >96% E-EPA on low-density lipoprotein (LDL) particle number and size; • 5. […]
structure (smiles),measurement,value
"CC/C=C\C/C=C\C/C=C\C/C=C\C/C=C\CCCC(=O)OCC [AMR101, ethyl eicosapentaenoate]","FADI-16 (Palmitoleic acid/Palmitic acid, C16:1/C16:0), % Change, Plasma",−6.8%
same,"FADI-18 (Oleic acid/Stearic Acid, C18:1/C18:0), % Change, Plasma",−9.8%
